We go through three substances from patent US20100074886A1, “CCR2 ANTAGONISTS FOR TREATMENT OF FIBROSIS” (priority 2006, published 2010).

Experiment [1] relates to fibrotic fibroblasts (UIP patients). In words: Profibrotic gene expression (real time PCR) after 24 hrs stimulation of fibrotic fibroblasts. Type of experiment: cell-based, human. As to conditions: for IL13Ra2 gene expression (FIG. 7B): fibroblasts, cell type not given; for CTGF gene expression (FIG. 5): fibrotic (UIP) fibroblasts; for TGFb1 gene expression (FIG. 4) / aSMA expression (FIG. 2) / increase in aSMA expression: fibrotic fibroblasts; for increase in aSMA expression: vs unstimulated. The source says: (§1) Cell lines were provided by Dr Cory Hogaboam at the University of Michigan. All of the primary fibroblast lines were isolated as previously described (Hogaboam et al. 1999 J Immunol 163(4):2193-201). Pulmonary fibroblasts were isolated from lung biopsies taken from UIP patients (n=4) and these are referred to as “fibrotic fibroblasts”. Fibroblasts were also isolated from lung tissue taken during lung tumor resection (n=5) and these samples were confirmed to be non-fibrotic by histological analysis. These non-fibrotic tissue derived fibroblasts are referred to as “non-fibrotic fibroblasts”.
(§2) Human lung fibroblasts were plated into 24 well plates (Costar, Corning, N.Y.) at 100,000 cells/well and allowed to adhere for 8 hours. The cells were then washed with PBS and cultured overnight in serum free media (DMEM with 1-Glutamine, Pen/Strep). Cells were then stimulated for 24 hrs in the presence or absence of TGFb-1 (1 or 10 ng/mL), PDGF-AB (20 or 200 ng/mL) or CCL2 (1 or 10 ng/mL). TGFb1, PDGF-AB and CCL2 were purchased from R&D Systems. Supernatants were removed and RNA was subsequently isolated using RNeasy Plus Mini-Kits (QIAGEN, Valencia, Calif.) as per manufacturer's instructions and RNA was reverse transcribed into cDNA using TaqManâ Reverse Transcription Reagents (Applied Biosystems, Foster City, Calif.). Profibrotic gene expression was determined by real time PCR using the Taqmanâ Universal PCR Master Mix (Applied Biosystems) and pre-developed Taqmanâ Gene Expression Assays (Applied Biosystems) as per manufacture's instructions.
(§3) Quantitative gene expression was calculated using the comparative CT method, where CT values are determined as the threshold cycle number for which gene expression is first detected. Fold changes in gene expression for the genes of interest were first normalized to the housekeeping gene 18S, giving ACT values. Fold changes in expression between fibrotic and non-fibrotic fibroblasts were calculated as: ΔCT(non-fibrotic)−ΔCT(fibrotic)=ΔΔCT, where the non-fibrotic gene expression served as the calibrator. Fold changes in gene expression due to in vitro stimulation were calculated by ΔΔCT=ΔCT(unstimulated)−ΔCT(stimulated), where the unstimulated sample served as calibrator. The calculation 2-ΔΔCT then gives a relative value for final fold change when compared to calibrator.
Background: In qPCR the cycle at which signal appears reflects the starting amount.

Experiment [2] has as its system non-fibrotic fibroblasts. In words: Profibrotic gene expression (real time PCR) after 24 hrs stimulation of non-fibrotic fibroblasts. In kind it is cell-based, human.
Excerpt: as §1, §2, §3

For the substance “CCL2: CC-chemokine ligand 2, Monocyte Chemoattractant Protein 1; purchased from R&D Systems, used as fibroblast stimulus”, in experiment [1] (UIP fibroblasts), the “IL13Ra1 gene expression (FIG. 7A)” value is “upregulated”, the “TGFbRII gene expression (FIG. 6B)” value was “somewhat greater increase in TGFbRII”, the “procollagen I gene expression (FIG. 3A)” value is “induces” and the “procollagen III gene expression (FIG. 3B)” value is on record as “induces”. In experiment [1], the “IL13Ra2 gene expression (FIG. 7B)” value is recorded as “upregulated”, the “CTGF gene expression (FIG. 5)” value is on record as “induced an increase”, the “TGFb1 gene expression (FIG. 4)” value is on record as “enhances TGFb1 gene expression” and the “aSMA expression (FIG. 2)” value was “induced an increase”. In addition, the “increase in aSMA expression” value in experiment [1] was “more than 10 fold”. In addition, in experiment [2], the “aSMA expression (FIG. 2)” value is “only induced an increase in aSMA expression in fibrotic fibroblasts”.

As for “PDGF: platelet-derived growth factor alpha/beta; purchased from R&D Systems, used as fibroblast stimulus”, in experiment [1] (UIP fibroblasts), the “IL13Ra1 gene expression (FIG. 7A)” value is given as “upregulated”. In experiment [1], the “IL13Ra2 gene expression (FIG. 7B)” value is reported as “upregulated”, the “CTGF gene expression (FIG. 5)” value is listed as “induced an increase”, the “aSMA expression (FIG. 2)” value is “modest increase” and the “increase in aSMA expression” value is listed as “less than 10 fold”. Also, the “aSMA expression (FIG. 2)” value in experiment [2] was “only in the fibrotic fibroblasts”.

Regarding “TGFb1: transforming growth factor beta-1; purchased from R&D Systems, used as fibroblast stimulus”, in experiment [1] (UIP fibroblasts), the “IL13Ra1 gene expression (FIG. 7A)” value was “upregulated” and the “TGFbRI gene expression (FIG. 6A)” value is reported as “greater effect on TGFbRI”. Further, in experiment [1], the “IL13Ra2 gene expression (FIG. 7B)” value is given as “upregulated”, the “CTGF gene expression (FIG. 5)” value is recorded as “induced an increase”, the “TGFb1 gene expression (FIG. 4)” value was “increased TGFβ1” and the “aSMA expression (FIG. 2)” value is recorded as “induced aSMA”. Besides, in experiment [2], the “CTGF gene expression (FIG. 5)” value is given as “induced an increase”, the “TGFb1 gene expression (FIG. 4)” value is recorded as “increased TGFβ1” and the “aSMA expression (FIG. 2)” value is on record as “induced aSMA”.
